What was measured:
Type in all cases: binding
[1] = target: Recombinant human integrin α5β1 (Homo sapiens (Human), UniProt P05556+P08648); assay: Solid Phase Receptor Assay (SPRA) for α5β1 function; details: fibronectin-coated plate
Protocol: 1. Solid Phase Receptor Assay (SPRA) for α5β1 Function
Purified human fibronectin (R&D Systems, 1918-FN) diluted to 2 μg/mL in TBS+ buffer (25 mM Tris pH 7.4, 137 mM NaCl, 2.7 mM KCl, 1 mM CaCl2, 1 mM MgCl2, 1 mM MnCl2) was added to wells (50 μL/well) of a 96-well half-well transparent microtiter plate (Greiner 675061) and incubated overnight at 4° C. Wells were washed 3 times with 150 μL TBS+ and 150 μL of blocking buffer (TBS+ with 1% bovine serum albumin, Sigma A7906) were added. The plate was incubated for 1 hr at 37° C. and then washed 3× with TBS+ buffer. Recombinant human integrin α5β1 (R&D Systems, 3230-A5) was diluted to 0.1 μg/mL in TBS+/0.1% bovine serum albumin. Compounds were diluted 1:100 into the integrin solution and then 50 μL added to empty wells of the washed fibronectin-coated plate according to a standard template with each sample repeated in triplicate. After incubation for two hours at room temperature, the plate was washed 3× with 150 μL of TBS+ buffer. To each well, 50 μl of biotinylated anti-α5 antibody (R&D Systems, BAF1864) at 0.5 μg/mL in TBS+/0.1% BSA were added and the plate covered and incubated for 1 hr at room temperature. After washing the plate 3× with 150 μL of TBS+ buffer, 50 μL of streptavidin-conjugated horseradish peroxidase (R&D Systems, DY998) diluted in TBS+ blocking buffer were added to the wells and the plate incubated for 20 min at room temperature. The plate was washed 3× with TBS+ buffer followed by 50 μL of room temperature TMB substrate (Sigma, T444) added to each well and the plate incubated for 20 min at room temperature. Plates were read by colorimetric detection at 650 nm wavelength using a Tecan Safire II plate reader. Concentration-response curves were constructed by non-linear regression (best fit) analysis, and IC50 values were calculated for each compound.

[2] = target: Recombinant human integrin αvβ1 (Homo sapiens (Human), UniProt P05556+P06756); assay: Solid Phase Receptor Assay (SPRA) for αvβ1 function; details: fibronectin-coated plate
Sequence of Recombinant human integrin αvβ1 (P06756 31-992): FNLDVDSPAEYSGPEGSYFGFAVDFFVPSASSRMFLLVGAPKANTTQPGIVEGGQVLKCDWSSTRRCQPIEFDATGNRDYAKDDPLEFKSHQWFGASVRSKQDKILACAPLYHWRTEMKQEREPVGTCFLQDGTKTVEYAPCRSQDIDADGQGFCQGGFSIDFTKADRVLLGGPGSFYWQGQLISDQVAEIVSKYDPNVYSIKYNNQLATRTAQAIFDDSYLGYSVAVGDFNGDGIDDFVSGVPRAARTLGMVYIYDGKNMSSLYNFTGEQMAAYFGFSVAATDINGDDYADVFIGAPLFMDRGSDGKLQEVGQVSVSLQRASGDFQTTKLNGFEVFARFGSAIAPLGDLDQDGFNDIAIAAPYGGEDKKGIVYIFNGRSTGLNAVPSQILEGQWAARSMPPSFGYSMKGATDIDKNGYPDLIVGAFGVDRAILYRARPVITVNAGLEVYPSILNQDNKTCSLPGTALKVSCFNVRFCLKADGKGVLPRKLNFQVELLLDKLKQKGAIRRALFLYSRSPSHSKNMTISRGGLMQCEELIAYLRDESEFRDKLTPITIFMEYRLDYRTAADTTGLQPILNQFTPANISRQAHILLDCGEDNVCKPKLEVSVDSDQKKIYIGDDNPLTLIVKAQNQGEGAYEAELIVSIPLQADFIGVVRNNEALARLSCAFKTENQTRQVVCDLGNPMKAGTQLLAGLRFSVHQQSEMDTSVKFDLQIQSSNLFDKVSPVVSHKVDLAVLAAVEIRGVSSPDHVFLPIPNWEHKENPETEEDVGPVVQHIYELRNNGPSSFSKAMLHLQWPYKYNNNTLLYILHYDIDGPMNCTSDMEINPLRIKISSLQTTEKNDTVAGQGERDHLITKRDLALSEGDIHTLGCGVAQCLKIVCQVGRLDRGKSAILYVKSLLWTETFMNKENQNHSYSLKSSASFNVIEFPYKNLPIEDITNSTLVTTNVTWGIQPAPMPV
Sequence of Recombinant human integrin αvβ1 (P05556 21-728): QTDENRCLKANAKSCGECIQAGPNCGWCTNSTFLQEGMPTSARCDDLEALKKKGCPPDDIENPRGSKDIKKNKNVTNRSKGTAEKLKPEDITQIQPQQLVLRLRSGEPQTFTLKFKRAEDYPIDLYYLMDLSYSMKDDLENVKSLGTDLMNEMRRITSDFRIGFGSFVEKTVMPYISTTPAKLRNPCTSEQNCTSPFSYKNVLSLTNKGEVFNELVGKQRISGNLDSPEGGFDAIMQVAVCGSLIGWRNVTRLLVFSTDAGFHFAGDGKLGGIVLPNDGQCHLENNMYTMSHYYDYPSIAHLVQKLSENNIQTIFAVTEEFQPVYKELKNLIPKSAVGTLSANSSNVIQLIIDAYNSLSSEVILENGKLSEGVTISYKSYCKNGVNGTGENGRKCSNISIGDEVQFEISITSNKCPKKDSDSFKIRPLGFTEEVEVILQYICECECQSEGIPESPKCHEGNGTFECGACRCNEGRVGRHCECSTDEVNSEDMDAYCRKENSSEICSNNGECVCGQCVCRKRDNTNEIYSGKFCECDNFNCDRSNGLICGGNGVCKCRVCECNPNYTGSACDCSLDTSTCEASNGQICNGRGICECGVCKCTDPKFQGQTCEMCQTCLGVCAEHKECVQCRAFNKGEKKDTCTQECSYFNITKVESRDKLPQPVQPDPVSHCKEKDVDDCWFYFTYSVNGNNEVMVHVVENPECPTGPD
Protocol: 2. Solid Phase Receptor Assay (SPRA) for αvβ1 Function
Purified human fibronectin (R&D Systems, 1918-FN) diluted to 5 μg/mL in TBS+ buffer (25 mM Tris pH 7.4, 137 mM NaCl, 2.7 mM KCl, 1 mM CaCl2, 1 mM MgCl2, 1 mM MnCl2) was added to wells (50 μL/well) of a 96-well half-well transparent microtiter plate (Greiner 675061) and incubated overnight at 4° C. Wells were washed 3 times with 150 μL TBS+ and 150 μL of blocking buffer (TBS+ with 1% bovine serum albumin, Sigma A7906) were added. The plate was incubated for 1 hr at 37° C. and then washed 3× with TBS+ buffer. Recombinant human integrin αvβ1 (R&D Systems. 6579-AV) was diluted to 2.0 μg/mL in TBS+/0.1% bovine serum albumin. Compounds were diluted 1:100 into the integrin solution and 50 μL added to empty wells of the washed fibronectin-coated plate according to a standard template with each sample repeated in triplicate. After incubation for two hours at room temperature, the plate was washed 3× with 150 μL of TBS+ buffer. To each well, 50 μL of biotinylated anti-αv antibody (R&D Systems, BAF1219) at 1 μg/mL in TBS+/0.1% BSA were added and the plate covered and incubated for 1 hr at room temperature. After washing the plate 3× with 150 μL of TBS+ buffer, 50 μL of streptavidin-conjugated horseradish peroxidase (R&D Systems, DY998) diluted in TBS+ blocking buffer were added to the wells and the plate incubated for 20 min at room temperature. The plate was washed 3× with TBS+ buffer followed by 50 μL of TMB substrate (Sigma, T4444) added to each well and the plate incubated for 20 min at room temperature. Plates were read by colorimetric detection at 650 nm wavelength using a Tecan Safire II plate reader. Concentration-response curves were constructed by non-linear regression (best fit) analysis, and IC50 values were calculated for each compound.

[3] = target: Recombinant human integrin αvβ5 (Homo sapiens (Human), UniProt P06756+P18084); assay: Solid Phase Receptor Assay (SPRA) for αvβ5 function; details: vitronectin-coated plate
Sequence of Recombinant human integrin αvβ5 (P06756 31-992): as the sequence (P06756 31-992) above
Sequence of Recombinant human integrin αvβ5 (P18084 24-719): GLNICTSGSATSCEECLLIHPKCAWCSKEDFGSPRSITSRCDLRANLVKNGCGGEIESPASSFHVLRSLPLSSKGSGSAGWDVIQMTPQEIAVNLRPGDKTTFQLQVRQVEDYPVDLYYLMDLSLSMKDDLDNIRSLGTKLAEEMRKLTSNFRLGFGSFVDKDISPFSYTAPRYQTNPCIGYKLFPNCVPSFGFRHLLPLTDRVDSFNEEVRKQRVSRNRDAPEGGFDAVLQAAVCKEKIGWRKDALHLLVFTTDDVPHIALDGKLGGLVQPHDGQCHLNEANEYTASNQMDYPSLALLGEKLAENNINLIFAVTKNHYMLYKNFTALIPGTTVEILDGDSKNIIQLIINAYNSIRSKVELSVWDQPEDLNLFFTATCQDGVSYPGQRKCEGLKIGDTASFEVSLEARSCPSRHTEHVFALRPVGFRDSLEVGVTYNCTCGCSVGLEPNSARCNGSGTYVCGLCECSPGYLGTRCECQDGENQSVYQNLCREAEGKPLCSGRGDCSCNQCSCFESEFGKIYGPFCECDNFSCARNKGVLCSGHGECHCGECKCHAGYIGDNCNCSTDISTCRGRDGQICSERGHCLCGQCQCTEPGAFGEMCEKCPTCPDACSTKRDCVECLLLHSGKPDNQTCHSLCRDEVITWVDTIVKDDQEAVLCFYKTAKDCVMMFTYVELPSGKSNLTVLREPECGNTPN
Protocol: 4. Solid Phase Receptor Assay (SPRA) for αvβ5 Function
Recombinant human vitronectin (R&D Systems, 2308-VN) at 0.25 μg/mL in TBS+ buffer (25 mM Tris pH 7.4, 137 mM NaCl, 2.7 mM KCl, 1 mM CaCl2, 1 mM MgCl2, 1 mM MnCl2) was added to wells (50 μL/well) of a 96-well half-well transparent microtiter plate (Greiner 675061) and incubated overnight at 4° C. Wells were washed 3 times with 150 μL TBS+ and 150 μL of blocking buffer (TBS+ with 1% bovine serum albumin, Sigma A7906) were added. The plate was incubated for 1 hr at 37° C. and then washed 3× with TBS+ buffer. Recombinant human integrin αvβ5 (R&D Systems, 2528-AV) was diluted to 0.1 μg/mL in TBS+/0.1% bovine serum albumin. Compounds were diluted 1:100 into the integrin solution and then 50 μL added to empty wells of the washed vitronectin-coated plate according to a standard template with each sample repeated in triplicate. After incubation for two hours at room temperature, the plate was washed 3× with 150 μL of TBS+ buffer. To each well, 50 μl of biotinylated anti-αv antibody (R&D Systems, BAF1219) at 0.5 μg/mL in TBS+/0.1% BSA at 0.5 μg/mL were added and the plate covered and incubated for 1 hr at room temperature. After washing the plate 3× with 150 μL of TBS+ buffer, 50 μL of streptavidin-conjugated horseradish peroxidase (R&D Systems DY998) diluted in TBS+ blocking buffer were added to the wells and the plate incubated for 20 min at room temperature. The plate was washed 3× with TBS+ buffer followed by 50 μL of TMB substrate (Sigma T4444) added to each well and the plate incubated for 20 min at room temperature. Plates were read by colorimetric detection at 650 nm wavelength using a Tecan Safire II plate reader. Concentration-response curves were constructed by non-linear regression (best fit) analysis, and IC50 values were calculated for each compound.

Sequence of Recombinant human integrin α5β1 (P08648 42-995): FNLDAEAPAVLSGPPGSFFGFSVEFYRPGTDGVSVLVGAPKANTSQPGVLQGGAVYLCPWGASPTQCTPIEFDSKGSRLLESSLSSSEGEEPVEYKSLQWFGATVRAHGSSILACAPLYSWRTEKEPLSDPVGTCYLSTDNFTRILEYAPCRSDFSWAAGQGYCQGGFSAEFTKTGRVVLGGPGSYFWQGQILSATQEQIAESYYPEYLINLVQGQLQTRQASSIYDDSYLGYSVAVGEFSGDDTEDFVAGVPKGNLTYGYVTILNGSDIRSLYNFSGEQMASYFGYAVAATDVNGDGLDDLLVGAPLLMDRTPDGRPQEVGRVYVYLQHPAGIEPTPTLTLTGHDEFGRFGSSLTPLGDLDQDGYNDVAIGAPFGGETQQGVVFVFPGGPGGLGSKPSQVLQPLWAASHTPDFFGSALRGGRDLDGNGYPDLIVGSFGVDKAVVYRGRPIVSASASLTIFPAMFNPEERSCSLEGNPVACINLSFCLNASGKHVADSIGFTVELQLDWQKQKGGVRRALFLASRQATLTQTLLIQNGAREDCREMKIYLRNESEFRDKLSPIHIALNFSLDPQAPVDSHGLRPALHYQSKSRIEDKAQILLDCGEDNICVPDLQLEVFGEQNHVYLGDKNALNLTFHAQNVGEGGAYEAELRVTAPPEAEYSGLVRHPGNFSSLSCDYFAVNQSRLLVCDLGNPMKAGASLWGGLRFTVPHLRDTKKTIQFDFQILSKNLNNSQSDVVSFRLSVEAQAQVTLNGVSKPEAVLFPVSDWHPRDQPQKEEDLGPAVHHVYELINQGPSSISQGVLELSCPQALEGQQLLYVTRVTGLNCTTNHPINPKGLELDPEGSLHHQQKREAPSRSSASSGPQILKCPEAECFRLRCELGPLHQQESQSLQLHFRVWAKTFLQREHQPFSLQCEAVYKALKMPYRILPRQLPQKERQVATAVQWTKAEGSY
Sequence of Recombinant human integrin α5β1 (P05556 21-728): as the sequence (P05556 21-728) above

Compound | IC50 [1] | IC50 [2] | IC50 [3]
O=C(O)C[C@H](NC(=O)CNC(=O)c1cc(O)cc(NC2=NCC(O)CN2)c1)c1cc(Br)cc(Br)c1 (stereo partly drawn) [Example 1, (3S)-3-(3,5-dibromophenyl)-3-(2-(3-hydroxy-5-((5-hydroxy-1,4,5,6-tetrahydropyrimidin-2-yl)amino)benzamido)acetamido)propanoic acid] | 1 ± 0.5 nM | 2 ± 2 nM | 0.2 nM
O=C(O)C[C@H](NC(=O)CNC(=O)c1cc(O)cc(NC2=NCC(O)CN2)c1)c1cc(Br)cc(C(F)(F)F)c1 (stereo partly drawn) [Example 2, (3S)-3-(3-bromo-5-(trifluoromethyl)phenyl)-3-(2-(3-hydroxy-5-((5-hydroxy-1,4,5,6-tetrahydropyrimidin-2-yl)amino)benzamido)acetamido)propanoic acid] | 0.8 nM | 2 nM | 0.4 nM
O=C(O)C[C@H](NC(=O)CNC(=O)c1cc(O)cc(NC2=NCC(O)CN2)c1)c1cc(Cl)cc(C(F)F)c1 (stereo partly drawn) [Example 3, (3S)-3-[3-chloro-5-(difluoromethyl)phenyl)-3-(2-(3-hydroxy-5-((5-hydroxy-1,4,5,6-tetrahydropyrimidin-2-yl)amino)benzamido)acetamido]propanoic acid] | 0.5 nM | 2 nM | 0.2 nM
O=C(O)C[C@H](NC(=O)CNC(=O)c1cc(O)cc(NC2=NCC(O)CN2)c1)c1cc(Br)cc(C(F)F)c1 (stereo partly drawn) [Example 4, (3S)-3-[3-bromo-5-(difluoromethyl)phenyl)-3-(2-(3-hydroxy-5-((5-hydroxy-1,4,5,6-tetrahydropyrimidin-2-yl)amino)benzamido)acetamido]propanoic acid] | 0.7 nM | 2 nM | 0.4 nM
O=C(O)C[C@H](NC(=O)CNC(=O)c1cc(O)cc(NC2=NCC(O)CN2)c1)c1cc(Cl)cc(C(F)(F)F)c1 (stereo partly drawn) [Example 5, (3S)-3-[3-chloro-5-(trifluoromethyl)phenyl)-3-(2-(3-hydroxy-5-((5-hydroxy-1,4,5,6-tetrahydropyrimidin-2-yl)amino)benzamido)acetamido]propanoic acid] | 0.8 nM | 2 nM | 0.5 nM
O=C(O)C[C@H](NC(=O)CNC(=O)c1cc(O)cc(NC2=NCC(O)CN2)c1)c1cc(Cl)cc(Br)c1 (stereo partly drawn) [Example 6, (3S)-3-[3-bromo-5-chloro-phenyl)-3-(2-(3-hydroxy-5-((5-hydroxy-1,4,5,6-tetrahydropyrimidin-2-yl)amino)benzamido)acetamido]propanoic acid] | 0.6 nM | 3 nM | 0.2 nM
O=C(O)C[C@H](NC(=O)CNC(=O)c1cncc(NC2=NCC(O)CN2)c1)c1cc(Cl)cc(C(F)(F)F)c1 (stereo partly drawn) [Example 7] | 0.7 nM | 1 nM | 0.2 nM
O=C(O)C[C@H](NC(=O)CNC(=O)c1cncc(NC2=NCC(O)CN2)c1)c1cc(Cl)cc(Br)c1 (stereo partly drawn) [Example 8, (3S)-3-(3-bromo-5-chloro-phenyl)-3-[[2-[[5-[(5-hydroxy-1,4,5,6-tetrahydropyrimidin-2-yl)amino]pyridine-3-carbonyl]amino]acetyl]amino]propanoic acid] | 0.6 nM | 1 nM | 0.1 nM
O=C(O)C[C@H](NC(=O)CNC(=O)c1cncc(NC2=NCC(O)CN2)c1)c1cc(Br)cc(C(F)(F)F)c1 (stereo partly drawn) [Example 9, (3S)-3-[3-bromo-5-(trifluoromethyl)phenyl]-3-[[2-[[5-[(5-hydroxy-1,4,5,6-tetrahydropyrimidin-2-yl)amino]pyridine-3-carbonyl]amino]acetyl]amino]propanoic acid] | 0.3 nM | 1 nM | 0.3 nM
O=C(O)C[C@H](NC(=O)CNC(=O)c1cc(O)cc(NC2=NCC(O)CN2)c1)c1cc(C(F)(F)F)cc(C(F)(F)F)c1 (stereo partly drawn) [Example 10, (3S)-3-[3,5-bis(trifluoromethyl)phenyl)-3-(2-(3-hydroxy-5-((5-hydroxy-1,4,5,6-tetrahydropyrimidin-2-yl)amino)benzamido)acetamido]propanoic acid] | 1 ± 0.4 nM | 2 ± 1 nM | 1 nM
Cc1cc(Br)cc([C@H](CC(=O)O)NC(=O)CNC(=O)c2cc(O)cc(NC3=NCC(O)CN3)c2)c1 (stereo partly drawn) [Example 11, (3S)-3-[3-bromo-5-methyl-phenyl)-3-(2-(3-hydroxy-5-((5-hydroxy-1,4,5,6-tetrahydropyrimidin-2-yl)amino)benzamido)acetamido)propanoic acid] | 0.5 nM | 0.4 nM | 0.3 nM
Cc1cc(Cl)cc([C@H](CC(=O)O)NC(=O)CNC(=O)c2cc(O)cc(NC3=NCC(O)CN3)c2)c1 (stereo partly drawn) [Example 12, (3S)-3-[3-chloro-5-methyl-phenyl)-3-(2-(3-hydroxy-5-((5-hydroxy-1,4,5,6-tetrahydropyrimidin-2-yl)amino)benzamido)acetamido)propanoic acid] | 2 nM | 4 ± 2 nM | 0.4 nM
O=C(O)C[C@H](NC(=O)CNC(=O)c1cc(O)cc(NC2=NCC(O)CN2)c1)c1cc(F)cc(Br)c1 (stereo partly drawn) [Example 13, (3S)-3-[3-bromo-5-fluoro-phenyl)-3-(2-(3-hydroxy-5-((5-hydroxy-1,4,5,6-tetrahydropyrimidin-2-yl)amino)benzamido)acetamido)propanoic acid] | 0.6 nM | 1 nM | 0.1 nM
O=C(O)C[C@H](NC(=O)CNC(=O)c1cncc(NC2=NCC(O)CN2)c1)c1cc(Br)cc(Br)c1 (stereo partly drawn) [Example 14, (3S)-3-(3,5-dibromophenyl)-3-[[2-[[5-[(5-hydroxy-1,4,5,6-tetrahydropyrimidin-2-yl)amino]pyridine-3-carbonyl]amino]acetyl]amino]propanoic acid] | 0.6 nM | 0.7 nM | 0.1 nM
O=C(O)C[C@H](NC(=O)CNC(=O)c1cc(O)cc(NC2=NCC(O)CN2)c1)c1cc(Cl)cc(Cl)c1 (stereo partly drawn) [Example 15, (3S)-3-[3,5-dichloro-phenyl)-3-(2-(3-hydroxy-5-((5-hydroxy-1,4,5,6-tetrahydropyrimidin-2-yl)amino)benzamido)acetamido)propanoic acid] | 1 ± 0.3 nM | 4 ± 1 nM | 0.3 nM
